Measurements: publication PMC12707362, “Targeting Aurora Kinases as Essential Cell‐Cycle Regulators to Deliver Multi‐Stage Antimalarials Against Plasmodium Falciparum” (Angewandte Chemie (International Ed. in English), 2025)

Tested on: PfArk2 (PF3D7_0309200) cKD parasites
Assay: Inhibitor susceptibility assay, PfArk2 conditional knockdown line
Assay type: cell-based, Plasmodium falciparum
Settings: cKD versus control
Protocol: Compound susceptibility assays using P. falciparum Ark1 and Ark2 cKD lines were carried out as previously described^[13]. Ark1 (PF3D7_0605300) and Ark2 (PF3D7_0309200) cKD lines generated by fusing the coding sequence and non-coding RNA aptamer sequences in the 5’- and 3’-UTR, permitting translation regulation using the TetR-DOZI system^[14]. Editing was achieved by CRISPR/SpCas9 using the linear pSN054 vector that contains cloning sites for the left homology region (LHR) and the right homology region (RHR), as well as a gene-specific guide RNA under control of the T7 promoter^[15]. The final constructs were sequence-verified and further confirmed by restriction digests. Transfection into Cas9- and T7 RNA polymerase-expressing NF54 parasites was carried out by pre-loading erythrocytes with the donor vector as previously described^[16]. Parasite culture was maintained continuously in 500 nM anhydrotetracycline (aTc, Sigma-Aldrich 37919) and drug selection with 2.5 μg/mL of Blasticidin S (RPI Corp B12150-0.1) was initiated four days after transfection. Briefly, synchronous ring-stage Ark1 (PF3D7_0605300) and Ark2 (PF3D7_0309200) cKD parasites, as well as a control parasite line expressing an aptamer-regulatable fluorescent protein, were maintained in the presence of high aTc (500 nM) or no aTc and distributed into 384-well polystyrene microplates (Corning). […]

Structure (SMILES): COc1cc(N2CCC(N3CCN(C)CC3)CC2)ccc1Nc1ncc(Cl)c(Nc2ccccc2S(=O)(=O)C(C)C)n1 [TAE684, NVP-TAE684]
- change in IC50 in PfArk2 cKD: no change in the IC50 value
